According to the NIST ThermoML archive (doi:10.1021/acs.jced.7b00035):
Where “and” joins values, the source holds several entries; their conditions need not be identical. Identical values can stand only once.

Assays:
[1] = xn = mol fraction of the nth substance listed; details: 100 kPa, Liquid, Vibrating tube method
[2] = excess molar enthalpy (molar enthalpy of mixing); xn = mol fraction of the nth substance listed; details: 100 kPa, Liquid, Flow calorimetry

CCC(=O)CC [pentan-3-one] + O
Details	excess molar enthalpy, [2]	mass density, [1] [kg/m3]
288.15 K, x1 = 0.000848	-0.0109 kJ/mol	998.595
288.15 K, x1 = 0.000849	-0.011 kJ/mol	998.589
288.15 K, x1 = 0.001695	-0.0215 kJ/mol	998.107
288.15 K, x1 = 0.001696	-0.0218 kJ/mol	998.104
288.15 K, x1 = 0.00254	-0.0323 kJ/mol	997.609
288.15 K, x1 = 0.002542	-0.0322 kJ/mol	997.616
288.15 K, x1 = 0.003385	-0.0426 kJ/mol	997.144
288.15 K, x1 = 0.003386	-0.0427 kJ/mol	997.139
288.15 K, x1 = 0.004227	-0.0529 kJ/mol	996.667
288.15 K, x1 = 0.004229	-0.0527 kJ/mol	996.682
288.15 K, x1 = 0.005069	-0.0627 kJ/mol	996.228
288.15 K, x1 = 0.005071	-0.0629 kJ/mol	996.221
298.15 K, x1 = 0.000847	-0.00897 kJ/mol and -0.00895 kJ/mol	996.504
298.15 K, x1 = 0.001693	-0.018 kJ/mol	995.96
298.15 K, x1 = 0.001694	-0.0178 kJ/mol	995.958
298.15 K, x1 = 0.002537	-0.0262 kJ/mol	995.458
298.15 K, x1 = 0.002539	-0.0263 kJ/mol	995.442
298.15 K, x1 = 0.00338	-0.0344 kJ/mol	994.944
298.15 K, x1 = 0.003383	-0.0347 kJ/mol	994.931
298.15 K, x1 = 0.004222	-0.0431 kJ/mol	994.42
298.15 K, x1 = 0.004225	-0.0431 kJ/mol	994.423
298.15 K, x1 = 0.005064	-0.0513 kJ/mol	993.924
298.15 K, x1 = 0.005066	-0.0516 kJ/mol	993.902
308.15 K, x1 = 0.000848	-0.00697 kJ/mol	993.46
308.15 K, x1 = 0.000849	-0.00709 kJ/mol	993.449
308.15 K, x1 = 0.001695	-0.0139 kJ/mol	992.887
308.15 K, x1 = 0.001696	-0.0139 kJ/mol	992.873
308.15 K, x1 = 0.00254	-0.0206 kJ/mol	992.322
308.15 K, x1 = 0.002543	-0.0208 kJ/mol	992.311
308.15 K, x1 = 0.003384	-0.027 kJ/mol	991.77
308.15 K, x1 = 0.003387	-0.0268 kJ/mol	991.774
308.15 K, x1 = 0.004226	-0.0333 kJ/mol	991.241
308.15 K, x1 = 0.004231	-0.0334 kJ/mol	991.216
308.15 K, x1 = 0.005069	-0.0399 kJ/mol	990.666
308.15 K, x1 = 0.005074	-0.0401 kJ/mol	990.66
318.15 K, x1 = 0.000849	-0.00506 kJ/mol	989.61
318.15 K, x1 = 0.00085	-0.00512 kJ/mol	989.603
318.15 K, x1 = 0.001697	-0.0101 kJ/mol	989.005
318.15 K, x1 = 0.001698	-0.0101 kJ/mol	988.992
318.15 K, x1 = 0.002543	-0.0149 kJ/mol	988.399
318.15 K, x1 = 0.002544	-0.0149 kJ/mol	988.396
318.15 K, x1 = 0.003388	-0.0193 kJ/mol	987.821
318.15 K, x1 = 0.00339	-0.0196 kJ/mol	987.82
318.15 K, x1 = 0.004231	-0.0241 kJ/mol	987.229
318.15 K, x1 = 0.004233	-0.024 kJ/mol	987.234
318.15 K, x1 = 0.005073	-0.0284 kJ/mol	986.636
318.15 K, x1 = 0.005076	-0.0285 kJ/mol	986.636
